Measurements taken from patent US10201558B2, “Compositions of selenoorganic compounds and methods of use thereof” (Alltech, Inc., priority 2014, dated 2019).
Entries after “also recorded” stand apart in the source; their conditions may differ.

How the values were obtained:
[1] = test system: Aβ plaque deposits (Aβ1-42); test: IHC analysis of amyloid deposits in the brains of APP/PS1 mice; format: in vivo, mouse; settings: diet with 1 ppm Se from Compound C, 6 to 12 months of age
Procedure: (§1) Male APPΔNLh/ΔNLh×PS1P246 L/246 L knock-in model mice of Alzheimer's disease (abbreviated APP/PS1) were genotyped using standard primers for human APP (Amyloid Precursor Protein) and human PS1 (PSEN1). These APP/PS1 mice starting at the age of 6 months, were fed either a control diet containing normal levels of selenium (0.3 ppm from plant and inorganic selenium salt sources) or an experimental diet containing Compound C (the control diet to which was added 1 ppm Se from Compound C) for 6 months.
At 12 months of age, the mice were euthanized and the brains quickly removed, the cerebellum isolated and the hemispheres snap-frozen in liquid nitrogen and then stored at −80° C. for further immunohistochemistry (IHC), protein and RNA analysis. All procedures conducted on these animal studies were pre-approved by the University of Kentucky IACUC committee.
Frozen brain tissues were sectioned using a Leica-CM1900 cryostat (Leica Microsystems Inc., Bannockburn, Ill.), as described previously (Zhang et al, 2008. Biochem Biophys Res Commun). These frozen brain sections were subjected to immunohistochemistry staining of Aβ plaques using a specific polyclonal antibody against Aβ1-42 (Abcam) and the Rabbit ImmunoCruz Staining System (Santa Cruz Biotechnology, Santa Cruz, Calif.) according to the manufacturer's protocol. […]

[2] = test system: Insulin Degrading Enzyme (IDE); test: Western blot of insulin degrading enzyme in APP/PS1 mouse brains; format: in vivo; settings: APP/PS1 mice, Compound C diet vs control diet
Procedure: as §1, with “months. […]” for “months.”
Frozen hemispheres of control- and Compound C-treated APP/PS1 mice were weighed and homogenized in PBS buffer, and then subsequently extracted with RIPA buffer (Sigma) containing complete proteinase and phosphatase inhibitors (Fisher Scientific). Protein levels in the samples were determined by micro-BCA protein analysis according to the manufacturer's protocol. […] Positive signals on the membrane blots were detected using Amersham's enhanced chemiluminescence Western Blotting Prime Detection reagents (GE healthcare Lifescience, Pittsburgh, Pa.). Images of these luminescence signals on the membrane blots were captured using the LI-COR Odyssey Fc Image system (Lincoln, Nebr.). Protein band densities in Western blots were determined using NIH Image J software, and then normalized by Actb levels in each samples to obtain the protein levels.

[3] = test system: gene transcripts in the brains of APP/PS1 mice; test: Microarray analysis of RNA expression in the brains of APP/PS1 mice; format: in vivo, mouse
[4] = APP/PS1 mouse brain, Compound C diet vs control diet

C[Se]C[C@H]1O[C@@H](n2cnc3c(N)ncnc32)C(O)C1O (stereo in doubt) [Compound C, 5′-deoxy-5′-methylselenoadenosine]
Aβ plaque deposits in the brain cortex (IHC, Aβ1-42 staining) [1]: much fewer and/or weaker-staining | Aβ plaque deposits in the brain hippocampus (IHC, Aβ1-42 staining) [1]: much fewer and/or weaker-staining | IDE protein levels in the brains [2]: increased; also recorded: elevated | number of genes with regulated expression in the brains ([3]; APP/PS1 mice, fold change of more than 1.2): 2217 genes | Fold Change, Akap5 [3, 4]: 1.589 fold | Fold Change, Apbb1 [3, 4]: −1.293 fold | Fold Change, App [3, 4]: −1.22 fold | Fold Change, Bcl2 [3, 4]: 1.246 fold | Fold Change, Camk2a [3, 4]: −1.67 fold | Fold Change, Cnr1 [3, 4]: −1.492 fold | Fold Change, Ddx5 [3, 4]: 1.26 fold | Fold Change, Dlx5 [3, 4]: 2.09 fold | Fold Change, Drd1 [3, 4]: 4.22 fold | Fold Change, Foxp2 [3, 4]: 2.52 fold | Fold Change, Gabra1 [3, 4]: −1.407 fold | Fold Change, Gabra2 [3, 4]: 1.275 fold | Fold Change, Gabrg1 [3, 4]: 1.375 fold | Fold Change, Gad2 [3, 4]: 1.69 fold | Fold Change, Gpr6 [3, 4]: 9.07 fold | Fold Change, Gpr88 [3, 4]: 6.47 fold | Fold Change, Grm4 [3, 4]: 1.418 fold | Fold Change, Htr2c [3, 4]: 1.797 fold | Fold Change, Isl1 [3, 4]: 11.32 fold | Fold Change, Mapk8 [3, 4]: −1.289 fold | Fold Change, Mapt [3, 4]: −1.21 fold | Fold Change, Meis2 [3, 4]: 2.04 fold | Fold Change, Nrxn1 [3, 4]: −1.444 fold | Fold Change, Pak1 [3, 4]: −1.201 fold | Fold Change, Pde10a [3, 4]: 2.91 fold | Fold Change, Penk [3, 4]: 4.068 fold | Fold Change, Prdx1 [3, 4]: 1.272 fold | Fold Change, Prkacb [3, 4]: −1.396 fold | Fold Change, Prkar2b [3, 4]: 1.439 fold | Fold Change, Prkcd [3, 4]: 1.813 fold | Fold Change, Prnp [3, 4]: −1.256 fold | Fold Change, Rarb [3, 4]: 4.03 fold | Fold Change, Rims1 [3, 4]: −1.459 fold | Fold Change, Scarb1 [3, 4]: 1.56 fold | Fold Change, Scp2 [3, 4]: 1.204 fold | Fold Change, Sez6 [3, 4]: 1.33 fold | Fold Change, Sod1 [3, 4]: 1.274 fold | Fold Change, Sorl1 [3, 4]: −1.41 fold | Fold Change, Sox2 [3, 4]: 1.274 fold | Fold Change, Tac1 [3, 4]: 3.36 fold | Fold Change, ZIC1 [3, 4]: 3.25 fold | Fold Change, Zic3 [3, 4]: 2.28 fold | Fold Change, Zic4 [3, 4]: 1.75 fold | Fold Change, Zic5 [3, 4]: 1.53 fold | Foxo 1, 3 and 4 mRNA levels [3, 4]: no significant change
